Holding throughout (assay type): in vivo
Test [1] relates to Setaria faberi (SETFA). The experiment in a line: Post-emergence biological efficacy, glasshouse pot test. The note with it: 312 h. The method, boiled down:
(§1)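 Pot-grown weeds were sprayed 8 days after sowing with test compound in acetone/water (50:50) with 0.5% Tween 20 at 1000 or 250 g/ha. Glasshouse at 24/16° C day/night, 14 h light, 65% humidity. Damage scored 0-100 (100 = total damage) after 13 days.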

Test [2] relates to Amaranthus retoflexus (AMARE). Described as above. The note with it: Amaranthus retroflexus, 312 h. The method, boiled down:
as §1

Test [3] deals with Ipomea hederaceae (IPOHE). Described as above. The note with it: Ipomoea hederacea, 312 h. The method, boiled down: as §1
The test system of test [4] is Solanum nigrum (SOLNI). The test is described as above. The note with it: 312 h. The method, boiled down:
as §1

The subject of test [5] is Echinochloa crus-galli (ECHCG). The description is as above. The note with it: 312 h. The method, boiled down:
as §1

In test [6] the test system is Alopecurus myosuroides (ALOMY). The test is described as above. The note with it: 312 h. The method, boiled down:
as §1

Test [7] has as its system Setaria faberi (SETFA). The test is described as follows: Pre-emergence biological efficacy, glasshouse pot test. The note with it: 312 h. The essentials: (§2)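 Visual phytotoxicity (0 no damage, 100 total damage) assessed 13 d after treatment. Soil-sown pots sprayed one day post-sowing; dose 1000 or 250 g/ha; formulation in acetone/water 50:50, 0.5% Tween 20.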
In test [8] the test system is Amaranthus retoflexus (AMARE). The description is as above. The note with it: Amaranthus retroflexus, 312 h. The method, boiled down:
as §2

Test [9] relates to Ipomea hederaceae (IPOHE). Described as above. The note with it: Ipomoea hederacea, 312 h. The method, boiled down:
as §2

Test [10] concerns Solanum nigrum (SOLNI). Described as above. The note with it: 312 h. The essentials: as §2
Test [11] relates to Echinochloa crus-galli (ECHCG). The test is described as above. The note with it: 312 h. The method, boiled down:
as §2

Test [12] relates to Alopecurus myosuroides (ALOMY). The description is as above. The note with it: 312 h. The essentials:
as §2

[13] abbreviates: Rate 1,000 g/ha, post-emergence spray, evaluated after 13 days (100=total damage to plant; 0=no damage to plant), read-out: Percentage damage caused to weed species, post-emergence, SETFA.
Where [14] appears, read: Rate 1,000 g/ha, post-emergence spray, evaluated after 13 days (100=total damage to plant; 0=no damage to plant), read-out: Percentage damage caused to weed species, post-emergence, AMARE.
Where [15] appears, read: Rate 1,000 g/ha, post-emergence spray, evaluated after 13 days (100=total damage to plant; 0=no damage to plant), read-out: Percentage damage caused to weed species, post-emergence, IPOHE.
Where [16] appears, read: Rate 1,000 g/ha, post-emergence spray, evaluated after 13 days (100=total damage to plant; 0=no damage to plant), read-out: Percentage damage caused to weed species, post-emergence, SOLNI.
The mark [17] stands for this setting: Rate 1,000 g/ha, post-emergence spray, evaluated after 13 days (100=total damage to plant; 0=no damage to plant), read-out: Percentage damage caused to weed species, post-emergence, ECHCG.
Setting [18] is: Rate 1,000 g/ha, post-emergence spray, evaluated after 13 days (100=total damage to plant; 0=no damage to plant), read-out: Percentage damage caused to weed species, post-emergence, ALOMY.
The mark [19] stands for this setting: pre-emergence, rate 1,000 g/ha, evaluated after 13 days (100=total damage to plant; 0=no damage), read-out: Percentage damage caused to weed species, SETFA.
The mark [20] stands for this setting: pre-emergence, rate 1,000 g/ha, evaluated after 13 days (100=total damage to plant; 0=no damage), read-out: Percentage damage caused to weed species, AMARE.
[21] abbreviates: pre-emergence, rate 1,000 g/ha, evaluated after 13 days (100=total damage to plant; 0=no damage), read-out: Percentage damage caused to weed species, IPOHE.
[22] abbreviates: pre-emergence, rate 1,000 g/ha, evaluated after 13 days (100=total damage to plant; 0=no damage), read-out: Percentage damage caused to weed species, SOLNI.
The mark [23] stands for this setting: pre-emergence, rate 1,000 g/ha, evaluated after 13 days (100=total damage to plant; 0=no damage), read-out: Percentage damage caused to weed species, ECHCG.
Where [24] appears, read: pre-emergence, rate 1,000 g/ha, evaluated after 13 days (100=total damage to plant; 0=no damage), read-out: Percentage damage caused to weed species, ALOMY.
The mark [25] stands for this setting: post-emergence, 1,000 g/ha, evaluated after 13 days (100=total damage; 0=no damage), read-out: Percentage damage caused to weed species, SETFA.
Where [26] appears, read: post-emergence, 1,000 g/ha, evaluated after 13 days (100=total damage; 0=no damage), read-out: Percentage damage caused to weed species, AMARE.
Where [27] appears, read: post-emergence, 1,000 g/ha, evaluated after 13 days (100=total damage; 0=no damage), read-out: Percentage damage caused to weed species, IPOHE.
[28] abbreviates: post-emergence, 1,000 g/ha, evaluated after 13 days (100=total damage; 0=no damage), read-out: Percentage damage caused to weed species, SOLNI.
Setting [29] is: post-emergence, 1,000 g/ha, evaluated after 13 days (100=total damage; 0=no damage), read-out: Percentage damage caused to weed species, ECHCG.
The mark [30] stands for this setting: post-emergence, 1,000 g/ha, evaluated after 13 days (100=total damage; 0=no damage), read-out: Percentage damage caused to weed species, ALOMY.
[31] abbreviates: pre-emergence, 1,000 g/ha, evaluated after 13 days (100=total damage; 0=no damage), read-out: Percentage damage SETFA.
Setting [32] is: pre-emergence, 1,000 g/ha, evaluated after 13 days (100=total damage; 0=no damage), read-out: Percentage damage AMARE.
[33] abbreviates: pre-emergence, 1,000 g/ha, evaluated after 13 days (100=total damage; 0=no damage), read-out: Percentage damage IPOHE.
[34] abbreviates: pre-emergence, 1,000 g/ha, evaluated after 13 days (100=total damage; 0=no damage), read-out: Percentage damage SOLNI.
Where [35] appears, read: pre-emergence, 1,000 g/ha, evaluated after 13 days (100=total damage; 0=no damage), read-out: Percentage damage ECHCG.
The mark [36] stands for this setting: pre-emergence, 1,000 g/ha, evaluated after 13 days (100=total damage; 0=no damage), read-out: Percentage damage ALOMY.

Each structure is given as a SMILES string.

For `COC(=O)c1nc(C2CC2)nc(N(C)Cc2ccc(Br)cc2)c1Cl` [Compound 5-69, 4-[N-(4-Bromo-phenylmethyl)-N-methyl-amino]-5-chloro-2-cyclo-propyl-6-methoxy-carbonylpyrimidine], the pest or weed control at 1000 g/ha with Setaria faberi (SETFA) [1] (setting [13]) came to 70%; in test [2] (setting [14]), 100%; in [3] (setting [15]) it was 80%; in the test on Solanum nigrum (SOLNI) [4] (setting [16]) it was 80%; in test [5] (setting [17]), 50%; in test [6] (setting [18]), 30%. Besides, the pest or weed control at 1000 g/ha came to 0% in the test on Setaria faberi (SETFA) [7] (setting [19]); 70% in test [8] (setting [20]); 50% in test [9] (setting [21]); 20% with Solanum nigrum (SOLNI) [10] (setting [22]); 10% in test [11] (setting [23]); 10% in test [12] (setting [24]).
On to `C=CCN(Cc1ccccc1F)c1nc(C2CC2)nc(C(=O)OC)c1Cl` [Compound 151-64, 5-Chloro-2-cyclo-propyl-4-[N(2-fluorophenyl)methyl-N-prop-2-enyl-amino]-6-methoxy-carbonylpyrimidine], for which the pest or weed control at 1000 g/ha with Setaria faberi (SETFA) [1] (setting [13]) was 90%; in test [2] (setting [14]), 100%; in [3] (setting [15]) it was 100%; in the test with Solanum nigrum (SOLNI) [4] (setting [16]), 90%; in test [5] (setting [17]), 40%; in test [6] (setting [18]), 10%. The pest or weed control at 1000 g/ha in the test with Setaria faberi (SETFA) [7] (setting [19]) amounted to 0%; in [8] (setting [20]) it was 30%; in [9] (setting [21]) it was 30%; in the test on Solanum nigrum (SOLNI) [10] (setting [22]) it was 0%; in test [11] (setting [23]), 0%; in test [12] (setting [24]), 0%.
As to `O=C(O)c1nc(C2CC2)nc(NCc2c(Cl)cccc2Cl)c1Cl` [Compound 1-104, 5-Chloro-2-cyclopropyl-4-(2,6-dichlorophenyl-methylamino)-pyrimidine-6-carboxylic acid], the pest or weed control at 1000 g/ha with Setaria faberi (SETFA) [1] (setting [25]) came to 0%; in test [2] (setting [26]), 60%; in test [3] (setting [27]), 60%; with Solanum nigrum (SOLNI) [4] (setting [28]) it was 50%; in test [5] (setting [29]), 0%; in test [6] (setting [30]) it was 0%. Further, the pest or weed control at 1000 g/ha (in the test on Setaria faberi (SETFA) [7] (setting [31]); in test [8] (setting [32]); in test [9] (setting [33]); in the test on Solanum nigrum (SOLNI) [10] (setting [34]); in test [11] (setting [35]); in test [12] (setting [36])) was 0% each time.
For `COC(=O)c1nc(C2CC2)nc(N[C@@H](Cc2ccc(OC(C)(C)C)cc2)C(=O)OC)c1Cl` [4-288 (S), 4-[(1S)-2-(4-^tButoxyphenyl)-1-methoxycarbonyl-ethylamino]-5-chloro-2-cyclopropyl-6-methoxycarbonyl-pyrimidine], the pest or weed control at 1000 g/ha in the test with Setaria faberi (SETFA) [1] (setting [25]) was 10%; in [2] (setting [26]), 80%; in [3] (setting [27]), 50%; with Solanum nigrum (SOLNI) [4] (setting [28]), 80%; in test [5] (setting [29]) it was 0%; in test [6] (setting [30]) it was 10%. For the same molecule, the pest or weed control at 1000 g/ha with Setaria faberi (SETFA) [7] (setting [31]) is 0%; in [8] (setting [32]), 80%; in [9] (setting [33]) it was 60%; in the test with Solanum nigrum (SOLNI) [10] (setting [34]), 40%; in test [11] (setting [35]), 0%; in [12] (setting [36]), 0%.
For the molecule `COC(=O)c1nc(-c2ccc(Cl)c(F)c2Cl)nc(NCc2ccco2)c1Cl` [Compound 224-48, 5-Chloro-2-(2,4-dichloro-3-fluorophenyl)-4-(furan-2-ylmethyl-amino)-6-methoxy-carbonylpyrimidine], the pest or weed control at 1000 g/ha came to 80% in the test with Setaria faberi (SETFA) [1] (setting [13]); 100% in test [2] (setting [14]); 70% in test [3] (setting [15]); 90% with Solanum nigrum (SOLNI) [4] (setting [16]); 40% in test [5] (setting [17]); 60% in test [6] (setting [18]). Also, the pest or weed control at 1000 g/ha in the test with Setaria faberi (SETFA) [7] (setting [19]) was determined as 50%; in test [8] (setting [20]), 100%; in test [9] (setting [21]), 70%; with Solanum nigrum (SOLNI) [10] (setting [22]), 90%; in test [11] (setting [23]) it was 0%; in [12] (setting [24]), 60%.
As for `COC(=O)c1nc(-c2ccc(C)c(C)c2)nc(NCc2ccco2)c1Cl` [Compound 255-48, 5-Chloro-2-(3,4-dimethylphenyl)-4-(furan-2-yl-methyl-amino)-6-methoxy-carbonylpyrimidine], the pest or weed control at 1000 g/ha in the test with Setaria faberi (SETFA) [1] (setting [13]) was 0%; in test [2] (setting [14]), 70%; in [3] (setting [15]), 10%; in the test with Solanum nigrum (SOLNI) [4] (setting [16]) it was 40%; in [5] (setting [17]) it was 0%; in [6] (setting [18]), 0%. Also, the pest or weed control at 1000 g/ha is 0% in the test on Setaria faberi (SETFA) [7] (setting [19]); 20% in test [8] (setting [20]); 10% in test [9] (setting [21]); 0% with Solanum nigrum (SOLNI) [10] (setting [22]); 0% in test [11] (setting [23]); 0% in test [12] (setting [24]).
With `COC(=O)c1nc(C2CC2)nc(NCCN2CCNC2=O)c1Cl` [Compound 4-219, 5-Chloro-2-cyclopropyl-6-methoxycarbonyl-4-[2-(2-oxo-imidazolidin-1-yl)ethylamino]-pyrimidine], the pest or weed control at 1000 g/ha amounted to 10% with Setaria faberi (SETFA) [1] (setting [25]); 50% in test [2] (setting [26]); 50% in test [3] (setting [27]); 50% with Solanum nigrum (SOLNI) [4] (setting [28]); 0% in test [5] (setting [29]); 0% in test [6] (setting [30]). Besides, the pest or weed control at 1000 g/ha in the test on Setaria faberi (SETFA) [7] (setting [31]) turned out to be 0%; in test [8] (setting [32]) it was 60%; in [9] (setting [33]) it was 90%; in the test on Solanum nigrum (SOLNI) [10] (setting [34]), 30%; in test [11] (setting [35]), 0%; in [12] (setting [36]), 0%.

(Values after patent publication US20110086759A1, “CHEMICAL COMPOUNDS” (SYNGENTA CROP PROTECTION, INC., priority 2007, published 2011).)
